Results as given in patent US10004732B2 (Novartis AG, priority 2014, dated 2018).

Key:
PI 3-kinase alpha [1] = target: T1, PI 3-kinase alpha (Homo sapiens, UniProt P42336); assay: Kinase Glo Luminescent Kinase Assay (Kglo), assay A; format: biochemical; conditions: read-out: Assay A PI3Kα IC50
PI 3-kinase beta [2] = target: T2, PI 3-kinase beta (Homo sapiens, UniProt P42338); assay: Kinase Glo Luminescent Kinase Assay (Kglo), assay B; format: biochemical; conditions: read-out: Assay B PI3Kβ IC50
Target sequence in this assay (P42338 whole entry): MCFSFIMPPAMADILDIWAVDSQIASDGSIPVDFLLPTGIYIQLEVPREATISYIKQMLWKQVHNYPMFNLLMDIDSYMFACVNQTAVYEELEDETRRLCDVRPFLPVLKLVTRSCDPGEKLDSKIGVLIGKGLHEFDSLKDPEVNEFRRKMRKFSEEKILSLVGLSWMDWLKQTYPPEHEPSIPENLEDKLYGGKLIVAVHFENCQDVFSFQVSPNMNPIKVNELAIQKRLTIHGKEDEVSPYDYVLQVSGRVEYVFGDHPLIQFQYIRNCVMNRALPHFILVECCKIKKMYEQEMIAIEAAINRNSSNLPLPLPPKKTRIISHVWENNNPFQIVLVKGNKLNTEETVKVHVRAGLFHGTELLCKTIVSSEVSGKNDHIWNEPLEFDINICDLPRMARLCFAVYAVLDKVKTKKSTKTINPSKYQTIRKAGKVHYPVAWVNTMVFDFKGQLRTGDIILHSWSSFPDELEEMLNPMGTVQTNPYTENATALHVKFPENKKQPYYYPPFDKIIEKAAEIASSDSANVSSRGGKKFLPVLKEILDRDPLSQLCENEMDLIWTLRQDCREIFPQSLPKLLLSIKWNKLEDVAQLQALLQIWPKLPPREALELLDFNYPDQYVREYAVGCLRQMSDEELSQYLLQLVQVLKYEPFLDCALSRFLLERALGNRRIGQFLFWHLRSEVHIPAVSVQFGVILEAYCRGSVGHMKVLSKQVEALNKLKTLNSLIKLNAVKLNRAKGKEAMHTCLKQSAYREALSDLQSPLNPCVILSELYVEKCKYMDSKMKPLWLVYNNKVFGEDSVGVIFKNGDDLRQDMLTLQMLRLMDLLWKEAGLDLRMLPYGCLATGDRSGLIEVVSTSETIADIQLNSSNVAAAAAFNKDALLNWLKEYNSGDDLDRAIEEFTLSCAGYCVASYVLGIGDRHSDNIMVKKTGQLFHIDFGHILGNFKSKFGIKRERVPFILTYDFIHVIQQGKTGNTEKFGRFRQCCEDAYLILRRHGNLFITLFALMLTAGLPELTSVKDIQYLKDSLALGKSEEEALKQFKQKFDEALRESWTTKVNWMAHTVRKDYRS
Target sequence in this assay (P27986 461-568 partner): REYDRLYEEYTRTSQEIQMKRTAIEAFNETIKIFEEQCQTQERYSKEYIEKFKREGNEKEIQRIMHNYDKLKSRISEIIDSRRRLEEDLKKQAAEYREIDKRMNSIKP

Vps34 = Vps34 (Homo sapiens, UniProt Q8NEB9); assay: Kinase Glo Luminescent Kinase Assay (Kglo), assay C; format: biochemical; conditions: read-out: Assay C VPS34 IC50
Vps34, sequence (Q8NEB9 whole entry, species assumed): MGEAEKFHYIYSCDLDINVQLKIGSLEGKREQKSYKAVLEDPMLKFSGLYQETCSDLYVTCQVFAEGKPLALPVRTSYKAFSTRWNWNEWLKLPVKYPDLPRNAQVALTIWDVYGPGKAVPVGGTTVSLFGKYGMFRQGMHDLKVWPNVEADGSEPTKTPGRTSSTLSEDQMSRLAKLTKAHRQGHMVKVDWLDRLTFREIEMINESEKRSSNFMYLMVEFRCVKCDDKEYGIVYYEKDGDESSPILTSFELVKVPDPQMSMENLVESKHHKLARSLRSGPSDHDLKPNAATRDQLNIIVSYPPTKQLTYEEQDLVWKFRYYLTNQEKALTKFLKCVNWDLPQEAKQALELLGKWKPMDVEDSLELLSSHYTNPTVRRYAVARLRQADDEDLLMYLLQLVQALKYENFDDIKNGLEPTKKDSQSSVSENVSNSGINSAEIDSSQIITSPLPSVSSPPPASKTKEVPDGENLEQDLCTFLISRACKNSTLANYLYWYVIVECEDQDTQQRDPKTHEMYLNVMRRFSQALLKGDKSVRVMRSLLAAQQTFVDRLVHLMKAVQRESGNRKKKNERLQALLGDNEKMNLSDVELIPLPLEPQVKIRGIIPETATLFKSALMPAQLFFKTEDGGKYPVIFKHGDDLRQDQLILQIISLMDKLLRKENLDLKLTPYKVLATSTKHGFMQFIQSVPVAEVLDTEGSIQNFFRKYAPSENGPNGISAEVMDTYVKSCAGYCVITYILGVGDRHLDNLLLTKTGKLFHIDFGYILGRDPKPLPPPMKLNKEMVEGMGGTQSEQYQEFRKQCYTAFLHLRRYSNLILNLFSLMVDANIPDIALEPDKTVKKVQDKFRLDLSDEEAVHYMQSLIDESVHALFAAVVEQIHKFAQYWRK
Description: Kinase Glo Luminescent Kinase Assay (Kglo) for Pb 3-Kinase Alpha (A), Pb 3-Kinase Beta (B), Vps34 (C), Pb 4-Kinase Beta (D)
The Kinase Glo Luminescent Kinase Assay (Promega, Madison/Wis., USA) is a homogeneous HTS method of measuring kinase activity by quantifying the amount of ATP remaining in solution following a kinase reaction.
L-α-phosphatidylinositol (PI), provided as 10 mg/ml solution in methanol, was transferred into a glass tube and dried under a nitrogen beam. It was then resuspended in 3% OctylGlucoside (1-0-n-octyl-beta-D-glucopyranoside) by vortexing and stored at 4° C. 5 μL of a mix of PI/OctylGlucoside with the PI 3-kinase alpha and PI 3-kinase beta subtypes, or Vps34 or PI 4-kinase beta were added. Kinase reactions were started by the addition of 5 μl of an ATP-mix containing in a final volume 10 μL 10 mM TRIS-HCl pH 7.5, 3 mM MgCl2, 50 mM NaCl, 0.05% CHAPS, 1 mM DTT and 1 μM ATP at room temperature.
All fits were performed with the program XLfit4 (ID Business Solutions, Guildford, UK).

PI 4-kinase beta = PI 4-kinase beta (Homo sapiens, UniProt Q9UBF8); assay: Kinase Glo Luminescent Kinase Assay (Kglo), assay D; format: biochemical; conditions: read-out: Assay D PI4Kβ IC50
PI 4-kinase beta, sequence (Q9UBF8 whole entry): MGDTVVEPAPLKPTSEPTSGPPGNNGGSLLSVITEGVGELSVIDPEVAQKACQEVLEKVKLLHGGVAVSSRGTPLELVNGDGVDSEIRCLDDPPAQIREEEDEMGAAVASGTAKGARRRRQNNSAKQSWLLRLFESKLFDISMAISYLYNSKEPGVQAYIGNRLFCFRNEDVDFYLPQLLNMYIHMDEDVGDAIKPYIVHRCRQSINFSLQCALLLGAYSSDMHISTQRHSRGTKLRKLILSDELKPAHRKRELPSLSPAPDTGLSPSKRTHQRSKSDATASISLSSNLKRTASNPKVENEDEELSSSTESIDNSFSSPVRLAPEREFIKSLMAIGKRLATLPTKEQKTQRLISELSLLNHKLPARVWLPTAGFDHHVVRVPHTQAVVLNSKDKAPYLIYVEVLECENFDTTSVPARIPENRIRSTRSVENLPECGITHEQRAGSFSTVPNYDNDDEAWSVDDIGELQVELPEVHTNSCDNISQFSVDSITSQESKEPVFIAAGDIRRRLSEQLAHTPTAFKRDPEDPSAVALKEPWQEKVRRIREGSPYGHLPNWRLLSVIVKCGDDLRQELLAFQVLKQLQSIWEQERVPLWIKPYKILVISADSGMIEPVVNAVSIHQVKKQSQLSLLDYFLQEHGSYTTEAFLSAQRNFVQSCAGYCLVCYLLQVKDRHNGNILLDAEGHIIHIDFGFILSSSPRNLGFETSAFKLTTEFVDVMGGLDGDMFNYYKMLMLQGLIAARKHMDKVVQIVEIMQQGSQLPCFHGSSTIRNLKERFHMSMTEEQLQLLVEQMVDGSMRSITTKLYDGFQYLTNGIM

PI 3-kinase gamma [3] = target: T3, PI 3-kinase gamma (Homo sapiens, UniProt P48736); assay: TR-FRET Adapta assay, assay E; format: biochemical; conditions: read-out: Assay E PI3Kγ IC50
mTOR = mTOR (Homo sapiens, UniProt P42345); assay: Lanthascreen kinase binding assay, assay G; conditions: read-out: Assay G mTOR IC50
Description: Lanthascreen™ Kinase Binding Assay for mTOR (G)
Binding of an inhibitor to the kinase competes for binding with the tracer, resulting in a loss of FRET.
50 nL of compound dilutions were dispensed onto white 384-well small volume polystyrene plate.

PI 3-kinase alpha [4] = target: T1, PI 3-kinase alpha; assay: Cellular assay H1, p-Akt (S473) in Rat-1 cells, Surefire format; format: cell-based; conditions: non-asterisked data: version H1 (Surefire format), Rat-1 cells; read-out: Assay H PI3Kα IC50
PI 3-kinase beta [5] = target: T2, PI 3-kinase beta; assay: Cellular assay I1, p-Akt (S473) in Rat-1 cells, Surefire format; format: cell-based; conditions: non-asterisked data: version I1 (Surefire format), Rat-1 cells; read-out: Assay I PI3Kβ IC50
Target sequence in this assay (P42338 whole entry): as the sequence (P42338 whole entry) above
Target sequence in this assay (Q63787 whole entry partner): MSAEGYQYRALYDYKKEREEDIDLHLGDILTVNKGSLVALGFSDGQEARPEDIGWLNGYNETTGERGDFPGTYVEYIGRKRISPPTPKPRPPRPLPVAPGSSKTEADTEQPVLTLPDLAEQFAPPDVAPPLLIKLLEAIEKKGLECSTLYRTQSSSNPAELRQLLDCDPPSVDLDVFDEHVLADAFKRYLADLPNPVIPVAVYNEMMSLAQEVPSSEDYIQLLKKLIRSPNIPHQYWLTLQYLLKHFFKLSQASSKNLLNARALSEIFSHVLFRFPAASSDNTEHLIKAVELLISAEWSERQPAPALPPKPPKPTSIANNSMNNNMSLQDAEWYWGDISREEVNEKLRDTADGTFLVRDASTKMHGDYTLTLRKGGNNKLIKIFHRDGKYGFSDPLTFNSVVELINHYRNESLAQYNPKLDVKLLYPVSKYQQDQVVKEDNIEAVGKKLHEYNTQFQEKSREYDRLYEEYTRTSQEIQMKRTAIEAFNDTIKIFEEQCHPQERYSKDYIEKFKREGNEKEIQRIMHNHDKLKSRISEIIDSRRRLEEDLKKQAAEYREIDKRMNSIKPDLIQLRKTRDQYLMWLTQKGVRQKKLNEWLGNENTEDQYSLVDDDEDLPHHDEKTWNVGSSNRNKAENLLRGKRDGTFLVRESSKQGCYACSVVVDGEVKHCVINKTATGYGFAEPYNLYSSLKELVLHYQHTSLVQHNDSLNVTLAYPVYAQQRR
Excerpt: Cellular Assays for PI 3-Kinase Alpha (H1), Beta (I1) and Delta (J1): Surefire Format
AlphaScreen (Amplified Luminescent Proximity Homogeneous Assay, ALPHA, Perkin Elmer) is a non-radioactive bead-based proximity assay technology to study biomolecular interactions in a homogenous microtiter plate format. The brand name SureFire denotes AlphaScreen assays that are adapted to quantify the phosphorylation of endogenous cellular proteins in cell lysates, by using matched antibody pairs, which consist of an anti-phospho-kinase and an anti-kinase antibody. The assay allows characterization of kinase signaling in cells as well as measurement of kinase inhibitor effects.
Using Rat-1 cells stably expressing myr-HA-tagged versions of the human PI3Kdelta, PI3Kalpha, or PI3Kbeta p110 catalytic subunit isoforms, the assay was developed as a two-plate protocol in a 384-well format.
For compound testing, the cells were seeded at a density of 4000 (Rat-1_PI3Kdelta), 7500 (Rat-1_PI3Kalpha), or 6200 (Rat-1_PI3Kbeta) cells in 20 μl complete growth medium into cell culture treated 384-well plates and were grown at 37° C./5% CO2/90% humidity for 24 h. Shortly before compound transfer, the complete medium was removed, 30 μl assay buffer (DMEM high glucose, 1×MEM NEAA, 10 mM HEPES, 2 mM L-glutamine, 0.1% (w/v) BSA) was added and 10 μl of the compound predilutions were transferred to the cells.

PI 3-kinase delta [6] = target: T4, PI 3-kinase delta (Homo sapiens, UniProt O00329); assay: Cellular assay J1, p-Akt (S473) in Rat-1 cells, Surefire format; format: cell-based; conditions: non-asterisked data: version J1 (Surefire format), Rat-1 cells; read-out: Assay J PI3Kδ IC50
Target sequence in this assay (O00329 whole entry): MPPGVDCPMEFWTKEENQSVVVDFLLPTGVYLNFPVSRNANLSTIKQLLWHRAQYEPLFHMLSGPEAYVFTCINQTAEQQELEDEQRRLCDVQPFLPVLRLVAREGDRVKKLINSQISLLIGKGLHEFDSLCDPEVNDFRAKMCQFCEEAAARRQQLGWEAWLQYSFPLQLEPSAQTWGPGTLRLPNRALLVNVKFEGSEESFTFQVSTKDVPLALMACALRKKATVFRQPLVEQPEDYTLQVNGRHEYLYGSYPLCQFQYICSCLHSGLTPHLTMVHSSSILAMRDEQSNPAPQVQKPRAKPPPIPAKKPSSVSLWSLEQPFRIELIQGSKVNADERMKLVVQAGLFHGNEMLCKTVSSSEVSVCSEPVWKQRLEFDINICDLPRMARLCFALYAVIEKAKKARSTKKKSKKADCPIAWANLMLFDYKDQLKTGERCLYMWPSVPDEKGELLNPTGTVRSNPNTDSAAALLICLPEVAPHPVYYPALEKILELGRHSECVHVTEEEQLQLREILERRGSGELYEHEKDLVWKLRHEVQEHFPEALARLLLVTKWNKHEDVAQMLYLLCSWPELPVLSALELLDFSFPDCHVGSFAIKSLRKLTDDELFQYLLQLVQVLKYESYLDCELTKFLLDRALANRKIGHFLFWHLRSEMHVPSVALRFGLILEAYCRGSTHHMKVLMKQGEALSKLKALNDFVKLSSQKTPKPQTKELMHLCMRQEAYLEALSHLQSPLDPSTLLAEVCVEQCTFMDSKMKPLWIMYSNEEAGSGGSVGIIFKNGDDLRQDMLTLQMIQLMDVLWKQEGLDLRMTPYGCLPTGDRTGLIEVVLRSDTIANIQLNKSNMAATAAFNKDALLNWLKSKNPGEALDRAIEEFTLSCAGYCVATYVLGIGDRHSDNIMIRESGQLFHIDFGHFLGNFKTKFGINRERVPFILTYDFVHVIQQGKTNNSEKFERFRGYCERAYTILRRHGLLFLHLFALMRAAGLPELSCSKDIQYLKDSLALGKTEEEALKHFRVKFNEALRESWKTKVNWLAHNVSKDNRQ
Target sequence in this assay (Q63787 whole entry partner): as the sequence (Q63787 whole entry partner) above

PI 3-kinase gamma [7] = target: T3, PI 3-kinase gamma; assay: Cellular U937 AKT assay K1 (MSD); format: cell-based; conditions: U937 cells, K1 format; read-out: Assay K1 PI3Kγ IC50
PI 3-kinase gamma [8] = target: T3, PI 3-kinase gamma; assay: Cellular U937 AKT assay K2 (HTRF); format: cell-based; conditions: U937 cells, K2 format; read-out: Assay K2 PI3Kγ IC50
Description: In assays K1 and K2, the compounds were tested for their ability to inhibit the production of phosphorylated AKT (Protein Kinase B) generated in a PI 3-kinase gamma isoform-dependent process in a U937 human cell line.
Cellular U937 AKT Assay for PI 3-Kinase Gamma (K2)
U937 cells are split every 3-4 days: 5×10^6 cells/flask (175 cm^2) in 40 ml.
Semi-automated preparation of cell lysates: Cells were resuspended in HBSS, seeded (200′000 cells/well/60 μl) into a 384-well plate and incubated in a humidified 37° C., 5% CO2 incubator for 1.5 hours. The compounds were diluted with HBSS and 40 μl were added to the starved cells (except for wells 24 I-P). […] The cells were then incubated for 30 minutes at 37° C. and 5% CO2. Stimulation occurred during 3 minutes by addition of 20 μl MIP1α (final 10 ng/ml, diluted in HBSS) in the incubator. Wells 24 A-H were only stimulated with HBSS.
The stimulation was then stopped by putting the cell plates on ice (filled with cold water). The cells were then centrifuged at 1200 rpm and 4° C. for 3 minutes.
80 μl of supernatant was removed. The cells were again centrifuged at 1200 rpm and 4° C. for 3 minutes. The supernatant was then removed by turning plates upside down and 30 μl of lysis buffer were added. The plate was incubated at room temperature for 30 minutes under shaking. 16 μl were then transferred to a ProxiPlate Plus 384-well. 4 μl of the master mix (each conjugate diluted 1:20 with detection reagent) were added to each well and the plate was kept in the dark at room temperature for 4 hours.

[9] = test system: IL-8-induced neutrophil shape change in human whole blood; assay: Whole blood neutrophil shape change assay (L); format: cell-based; conditions: Homo sapiens, Neutrophil, IL-8, human whole blood, read-out: Assay L WBSC IC50
PI 3-kinase delta [10] = target: T4, PI 3-kinase delta; assay: TR-FRET Adapta assay, assay F
Target sequence in this assay (O00329 whole entry): as the sequence (O00329 whole entry) above
Target sequence in this assay (P27986 461-568 partner): as the sequence (P27986 461-568 partner) above
Description: TR-FRET Adapta Assay for PI 3-Kinase Gamma (E), PI 3-Kinase Delta (F)
The TR-FRET Adapta™ Universal Kinase Assay Kit was purchased from Invitrogen Corporation (Carlsbad/CA, USA) (Cat. No. PV5099).
PIK3CD substrate phosphatidylinositol (PI) was obtained from Invitrogen (vesicules consisting of 2 mM phosphatidylinositol (PI) in 50 mM HEPES pH7.5; Cat. No. PV5371). PIK3CG substrate phosphatidylinositol-4,5-bisphosphate (PIP(4,5)2 was obtained from Invitrogen (PIP2:PS large unilamellar vesicules consisting of 1 mM PIP2: 19 mM PS in 50 mM HEPES pH7.5, 3 mM MgCl2, 1 mM EGTA; Cat. No. PV5100).
Time-Resolved Fluorescence Resonance Energy Transfer (TR-FRET) is a technology based on energy transfer between two adjacent dyes, from an excited electron in one dye (the donor) to an electron of an adjacent dye (the acceptor) through resonance, then released as a photon. This energy transfer is detected by an increase in the fluorescence emission of the acceptor, and a decrease in the fluorescence emission of the donor. TR-FRET assays for protein kinases use a long-lifetime lanthanide Terbium or Europium chelates as the donor species which overcome interference from compound autofluorescence or light scatter from precipitated compounds, by introducing a delay after excitation by a flashlamp excitation source. Results are often expressed as a ratio of the intensities of the acceptor and donor fluorophores. The ratiometric nature of such a value corrects for differences in assay volumes between wells, as well as corrects for quenching effects due to colored compounds. The Adapta™ assay can be divided into two phases: a kinase reaction phase and an ADP detection phase. In the kinase reaction phase, all kinase reaction components are added to the well and the reaction is allowed to incubate for a set period of time specific for each kinase. […] In the presence of an inhibitor, the amount of ADP formed by the kinase reaction is reduced, and the resulting intact antibody-tracer interaction maintains a high TR-FRET signal.
50 nL of compound dilutions were dispensed onto white 384-well small volume polystyrene plate. Then 5 μL of either PI 3-kinase gamma or PI 3-kinase delta and lipid substrate (PI or PIP2:PS) followed by 5 μL of ATP (final assay volume 10 μL) are incubated at RT. The standard reaction buffer for the Adapta™ TR-FRET assay contained 10 mM Tris-HCl pH 7.5, 3 mM MgCl2, 50 mM NaCl, 1 mM DTT, 0.05% CHAPS 3-[(3-cholamidopropyl)dimethylammonio]-1-propanesulfonate).
Data are analyzed using Excel fit software or Graphpad Prism. IC50 values were derived by fitting a sigmoidal dose-response curve to a plot of assay readout over inhibitor concentration. All fits were performed with the program XLfit4 (ID Business Solutions, Guildford, UK). […] All fits were performed with the program XLfit4 (ID Business Solutions, Guildford, UK).

[11] = Microsomal clearance assay (M); conditions: intrinsic clearance in rat liver microsomes
Description: The experiments were performed in 96-well glass plates at 37° C. on an automated Tecan EVO platform. Test compounds at a concentration of 10 mM in pure DMSO were diluted 1:1000 in water to 10 μM. […] Reactions were initiated by the addition of 150 μL of a cofactor solution containing 2 mM NADPH.

PI 3-kinase alpha [12] = target: T1, PI 3-kinase alpha; assay: Cellular assay H2, p-AKT (Ser473) in Rat-1 cells, HTRF format; format: cell-based; conditions: asterisked data: version H2 (HTRF format), read-out: Assay H PI3Kα IC50
Description: Cellular Assays for PI 3-Kinase Alpha (H2), Beta (12) and Delta (J2): HTRF (Homogeneous Time Resolved Fluorescence) Format
All cell lines were cultivated in complete growth medium (DMEM high glucose GlutaMAX™ Pyruvate, 10% (v/v) fetal bovine serum, 0.1 mM MEM NEAA, 25 mM HEPES, puromycin 10 μg/mL, 100 U/ml Penicillin, 100 μg/ml Streptomycin) to 90% confluency at 37° C./5% CO2/90% humidity in a humidified CO2 incubator and were split twice a week.
Semi-automated preparation of cell lysates: For low (inhibited) controls, 0.9 mM NVP-BGT226-AF-1 in 90% (v/v) DMSO was added to the compound master plate. For compound testing, the cells were seeded at a density of 4000 (Rat-1_PI3Kdelta), 8000 (Rat-1_PI3Kalpha), or 6500 (Rat-1_PI3Kbeta) cells in 30 μl complete growth medium into cell culture treated 384-well plates and were grown at 37° C./5% CO2/90% humidity for 24 h. 10 μl of the compound predilutions were transferred to the cells.

| Structure (SMILES) | IC50 (PI 3-kinase alpha [1]) [nM] | IC50 (PI 3-kinase beta [2]) [nM] | IC50 (Vps34) [nM] | IC50 (PI 4-kinase beta) [nM] | IC50 (PI 3-kinase gamma [3]) [nM] | IC50 (mTOR) [nM] | IC50 (PI 3-kinase alpha [4]) [nM] | IC50 (PI 3-kinase beta [5]) [nM] | IC50 (PI 3-kinase delta [6]) [nM] | IC50 (PI 3-kinase gamma [7]) [nM] | IC50 (PI 3-kinase gamma [8]) [nM] | IC50 [9] [nM] | IC50 (PI 3-kinase delta [10]; read-out: Assay F PI3Kδ IC50) [nM] | Assay M RLM CI(int) [11] [µL/min/mg] | IC50 (PI 3-kinase delta [10]) [nM] | IC50 (PI 3-kinase alpha [12]) [nM] |
| --- | --- | --- | --- | --- | --- | --- | --- | --- | --- | --- | --- | --- | --- | --- | --- | --- |
| CCONS(=O)(=O)c1ccc(C)c(-c2cnc(N)c(-n3cncn3)n2)c1 [Example 112, 3-(5-Amino-6-(1H-1,2,4-triazol-1-yl)pyrazin-2-yl)-N-ethoxy-4-methylbenzenesulfonamide] | 860 | 3300 | > 10000 | 3150 | 19 | 6300 | 790 | 1140 | 310 | 95 | 172 | 586 | 500 | 62 | – | – |
| Cc1ncc(-c2nc(-c3cc(S(=O)(=O)NC[C@H]4CCCO4)ccc3C)cnc2N)s1 (single isomer, unassigned) [Example 45.6b, (R)-3-(5-Amino-6-(2-methylthiazol-5-yl)pyrazin-2-yl)-4-methyl-N-((tetrahydrofuran-2-yl)methyl)benzenesulfonamide or (S)-3-(5-Amino-6-(2-methylthiazol-5-yl)pyrazin-2-yl)-4-methyl-N-((tetrahydrofuran-2-yl)methyl)benzenesulfonamide] | 380 | – | – | > 10000 | 42 | – | – | – | – | – | – | – | – | 237 | – | 1760 |
| Cc1ccc(S(=O)(=O)N[C@H]2CC[C@H](O)CC2)cc1-c1cnc(N)c(-c2cccnc2)n1 [Example 22, Trans-3-(5-Amino-6-pyridin-3-yl-pyrazin-2-yl)-N-(4-hydroxy-cyclohexyl)-4-methyl benzenesulfonamide] | 760 | 5710 | > 9100 | 7080 | 44 | 8020 | 6670 | > 10000 | 4690 | 164 | 100 | 256 | 420 | 47 | – | – |
| Cc1ccc(S(=O)(=O)NCC2(O)CCCC2)cc1-c1cnc(N)c(-n2cncn2)n1 [Example 127.35] | 330 | 1100 | > 10000 | 6300 | 50 | 7100 | > 10000 | 2050 | > 10000 | 85 | 391 | 847 | 810 | 202 | – | – |
| Cc1ncc(-c2nc(-c3cc(S(=O)(=O)NC[C@H]4CCCO4)ccc3C)cnc2N)s1 (single isomer, unassigned) [Example 45.6a, (R)-3-(5-Amino-6-(2-methylthiazol-5-yl)pyrazin-2-yl)-4-methyl-N-((tetrahydrofuran-2-yl)methyl)benzenesulfonamide or (S)-3-(5-Amino-6-(2-methylthiazol-5-yl)pyrazin-2-yl)-4-methyl-N-((tetrahydrofuran-2-yl)methyl)benzenesulfonamide] | 70 | – | – | 4100 | 9 | – | – | – | – | – | – | – | – | 228 | – | 820 |
| Cc1ccc(S(=O)(=O)NCC2(C)COC2)cc1-c1cnc(N)c(-c2cnn(C)c2)n1 [Example 5, 3-[5-Amino-6-(1-methyl-1H-pyrazol-4-yl)-pyrazin-2-yl]-4-methyl-N-(3-methyl-oxetan-3-ylmethyl)-benzenesulfonamide] | 680 | 690 | > 10000 | 6700 | 12 | > 10000 | > 10000 | > 10000 | 3450 | 78 | 261 | 696 | 1000 | 26 | – | – |
| Cc1cc(F)c(S(=O)(=O)NCC(C)(C)O)cc1-c1cnc(N)c(-n2cncn2)n1 [Example 122, 5-(5-Amino-6-(1H-1,2,4-triazol-1-yl)pyrazin-2-yl)-2-fluoro-N-(2-hydroxy-2-methylpropyl)-4-methylbenzenesulfonamide] | 490 | 2200 | > 10000 | 1900 | 85 | 6600 | 2280 | 1490 | 1190 | 151 | 296 | 988 | 1600 | 26 | – | – |
| Cc1ncn(-c2nc(-c3cc(S(=O)(=O)NCC(C)(C)O)ccc3C)cnc2N)n1 [Example 25, 3-[5-Amino-6-(3-methyl-[1,2,4]triazol-1-yl)-pyrazin-2-yl]-N-(2-hydroxy-2-methyl-propyl)-4-methyl-benzenesulfonamide] | 620 | 3150 | > 10000 | > 10000 | 79 | 210 | 2190 | 1700 | 1390 | 153 | 2340 | 742 | 1030 | 71 | – | – |

Further lines, with some results ahead:

| IC50 (PI 3-kinase alpha [1]) [nM] | IC50 (PI 3-kinase beta [2]) [nM] | IC50 (Vps34) [nM] | IC50 (PI 4-kinase beta) [nM] | IC50 (PI 3-kinase gamma [3]) [nM] | IC50 (mTOR) [nM] | IC50 (PI 3-kinase alpha [4]) [nM] | IC50 (PI 3-kinase beta [5]) [nM] | IC50 (PI 3-kinase delta [6]) [nM] | IC50 (PI 3-kinase gamma [7]) [nM] | IC50 (PI 3-kinase gamma [8]) [nM] | IC50 [9] [nM] | IC50 (PI 3-kinase delta [10]; read-out: Assay F PI3Kδ IC50) [nM] | Assay M RLM CI(int) [11] [µL/min/mg] | IC50 (PI 3-kinase delta [10]) [nM] | Structure (SMILES) | IC50 (PI 3-kinase alpha [12]) [nM] |
| --- | --- | --- | --- | --- | --- | --- | --- | --- | --- | --- | --- | --- | --- | --- | --- | --- |
| 430 | 1400 | > 10000 | 1700 | 25 | 3900 | 650 | > 3000 | 6510 | 172 | 198 | 1860 | 1400 | 129 | – | Cc1ccc(S(=O)(=O)NC2CC2)cc1-c1cnc(N)c(-n2cncn2)n1 [Example 127.53] | – |
| 50 | 440 | 470 | 1480 | 8 | 3450 | 1080 | 3570 | 1080 | 55 | 24 | 143 | 320 | 39 | – | Cc1ncc(-c2nc(-c3cc(S(=O)(=O)NCCCO)c(F)cc3C)cnc2N)s1 [Example 113, 5-(5-Amino-6-(2-methylthiazol-5-yl)pyrazin-2-yl)-2-fluoro-N-(3-hydroxypropyl)-4-methylbenzenesulfonamide] | – |
| 1300 | 6800 | > 9100 | 5200 | 9 | > 9100 | 4630 | 8080 | 6610 | 206 | 314 | 956 | 910 | 62 | – | Cc1ccc(S(=O)(=O)NCC2(C)COC2)cc1-c1cnc(N)c(-n2cncn2)n1 [Example 29, 3-(5-Amino-6-[1,2,4]triazol-1-yl-pyrazin-2-yl)-4-methyl-N-(3-methyl-oxetan-3-ylmethyl)-benzenesulfonamide] | – |
| 30 | 1060 | > 9100 | 5280 | 7 | 1880 | 720 | 1430 | 420 | 11 | 23 | 232 | – | 55 | 50 | Cc1ncc(-c2nc(-c3cc(S(=O)(=O)NC[C@H]4C[C@@H](O)C4)ccc3C)cnc2N)s1 [Example 20a, cis-3-[5-Amino-6-(2-methyl-thiazol-5-yl)-pyrazin-2-yl]-N-(3-hydroxy-cyclobutylmethyl)-4-methyl-benzenesulfonamide] | – |
| 50 | 880 | 400 | 4980 | 11 | 3310 | 660 | 1730 | 610 | 14 | 24 | 106 | – | 30 | 50 | Cc1ncc(-c2nc(-c3cc(S(=O)(=O)NC[C@H]4C[C@H](O)C4)ccc3C)cnc2N)s1 [Example 20b, trans-3-[5-Amino-6-(2-methyl-thiazol-5-yl)-pyrazin-2-yl]-N-(3-hydroxy-cyclobutylmethyl)-4-methyl-benzenesulfonamide] | – |
